# Assay results: PMC11237553, “De novo synthetic antimicrobial peptide design with a recurrent neural network” (Protein Science : A Publication of the Protein Society, 2024)
# Test system: Escherichia coli ATCC 25922
# Experiment: Broth microdilution antimicrobial susceptibility testing (MIC/MBC)
# Format: cell-based
# Settings: one maximum and one minimum data point dropped; for MIC, E. coli ATCC 25922: broth microdilution (CLSI, adapted for cationic AMPs), Mueller‐Hinton Broth, 5 ± 3 × 10^5 CFU/mL, 20–24 h at 37°C, test range 128 down to 0.25 μg/mL, lowest effective concentration range in three independent experiments in duplicate; for MBC, E. coli ATCC 25922: concentration killing 99.9% of the inoculum, plated from MIC wells, 24 h at 37°C, range in three independent experiments in duplicate
# Experimental: Bacteria from frozen stocks were streaked onto non‐selective Columbia blood agar with 5% sheep blood (Oxoid) and incubated for 18–24 h at 37°C. The following day, 2–4 colonies were streaked onto a new agar plate and incubated for 18–24 h at 37°C to ensure uniform colony health prior to the assay. A standardized bacterial inoculum was prepared by suspending isolated colonies in Mueller‐Hinton Broth (MHB; Sigma‐Aldrich, St. Louis, MO, USA). The suspension was adjusted to an optical density of 0.08–0.1 at 600 nm, equivalent to a 0.5 McFarland standard of approximately 1–2 × 10^8 CFU/mL (CFU: colony forming units). The inoculum was then diluted 1:250 to achieve a final concentration of 5 ± 3 × 10^5 CFU/mL. The target bacterial density was confirmed by examining the total viability counts from the final inoculum.
# Candidate AMPs were purchased from and synthesized by GenScript (Piscataway, NJ, USA). These were received in lyophilized format and stored at −20°C, and were suspended in sterile ultrapure water prior to testing.
Sequence,"MIC, E. coli ATCC 25922 [µg/mL]","MBC, E. coli ATCC 25922 [µg/mL]"
FLPKIAGKAAKKLPKIFCKITKKC [DeNo1019],16,16
FLPKIFKKIAKKL [DeNo1045],64,64 to 128
KIFGKILKKLLKKLLKKLLKKL [DeNo1013],16,16 to 32
KLPSIIKAAAKALPKLF [DeNo1034],16 to 32,16 to 64
MLPSIAGAAAKGLPKLFCKITKKC [DeNo1038],64,64 to 128
RLPSIIPGIAGKLGGLLGGLLKGL [DeNo1027],32,32 to 64
TLPDVAKNVAKNVAKTVLDTLKCKITGKC [DeNo1020],64 to 128,64 to 128
